Data published in patent EP0593831A1, “Long-chain fatty alcohols as neurotrophic and memory improving agents” (MEDAFOR, priority 1992, dated 1994).

Test system: neurones de cortex
Test: Survival of cortex neurons in primary culture
Assay type: cell-based, rat
Conditions: 10⁻⁵M; after 10 days of culture; versus control cells; p < 0,02, Student t (figure 3)
Excerpt: Les dérivés de l'invention ont été testés sur des neurones du système nerveux central en culture primaire. Les cultures sont préparées à partir de cerveaux d'embryons de rats. Les neurones proviennent de l'une des trois zones cérébrales suivantes: le cortex à partir d'embryons de 14 jours, l'hippocampe et le septum à partir d'embryons de 18 jours. Les cellules sont ensemencées à faible densité (10⁵ cellules/lamelle) sur des lamelles prétraitées avec de la poly-L-lysine. Les cellules sont maintenues dans un milieu de culture chimiquement défini. Les dérivés testés sont ajoutés le premier jour de la mise en culture des cellules à des doses variant de 10⁻⁹ M à 10⁻⁴ M. Le changement de milieu se fait tous les quatre jours avec addition des composés à tester.
On suit la survie des neurones en culture à l'aide d'un microscope en contraste de phase. De manière générale, les cellules témoins dégénèrent après 11 jours de culture alors que le nombre de cellules survivantes est significativement élevé dans les cultures traitées avec les dérivés de l'invention.
A titre d'exemple, l'effet du composé A₁, sur la survie des neurones de cortex est représenté sur la figure 3. Ce graphique représente le nombre de neurones survivants après 10 jours de culture.

CC1=C(CCCCCCCCCCCO)C(C)(C)CCC1 [composé A₁]
nombre de neurones survivants: significativement augmenté
